Source: patent US4414224A (SmithKline Beckman Corporation, priority 1982, dated 1983)

Tests used:
alpha1 = assay: Isolated perfused rabbit ear artery preparation, vasoconstriction indicative of alpha1 activity; type: cell-based
Text: The isolated perfused rabbit ear artery preparation described by J. P. Hiebel and R. G. Pendleton, Arch.

normal anesthetized dog = assay: Intravenous infusion in the normal anesthetized dog (MAP, RBF, RVR, HR); type: in vivo; settings: i.v. infusion
[1] = 0.3 μg/kg/min (base), A in 10% dimethylsulfoxide in 0.9% saline
[2] = 3 μg/kg/min (base), dopamine run in each test for comparison

CCCN(CCC)CCc1ccc(O)c2c1CC(=O)N2 [4-(2-di-n-propylaminoethyl)-7-hydroxy-2(3H)-indolone]
concentration at which vasoconstriction indicative of alpha1 activity was observed (alpha1): about 1000 nM

Br.CCCN(CCC)CCc1ccc(O)c2c1CC(=O)N2 [A, 4-(2-di-n-propylaminoethyl)-7-hydroxy-2(3H)-indolone hydrobromide]
% Change HR (heart rate) (normal anesthetized dog; [1]): +3.6%
% Change MAP (mean arterial blood pressure) (normal anesthetized dog; [1]): -5.1%
% Change RBF (mean renal blood flow) (normal anesthetized dog; [1]): +4.6%
% Change RVR (renal vascular resistance) (normal anesthetized dog; [1]): -0.5%
% Change HR (heart rate) (normal anesthetized dog; [2]): -11.2%
% Change MAP (mean arterial blood pressure) (normal anesthetized dog; [2]): -24.7%
% Change RBF (mean renal blood flow) (normal anesthetized dog; [2]): +24.7%
% Change RVR (renal vascular resistance) (normal anesthetized dog; [2]): -39.1%
% Change HR (heart rate) (normal anesthetized dog; 30 μg/kg/min (base)): -6.9%
% Change MAP (mean arterial blood pressure) (normal anesthetized dog; 30 μg/kg/min (base)): +28.4%
% Change RBF (mean renal blood flow) (normal anesthetized dog; 30 μg/kg/min (base)): -19.4%
% Change RVR (renal vascular resistance) (normal anesthetized dog; 30 μg/kg/min (base)): +59.2%

CCCN(CCC)CCc1ccc(OC)c2c1CC(=O)N2.Cl [B, 4-(2-di-n-propylaminoethyl)-7-methoxy-2(3H)-indolone hydrochloride]
% Change HR (heart rate) (normal anesthetized dog; [2]): -4.5%
% Change MAP (mean arterial blood pressure) (normal anesthetized dog; [2]): -3.6%
% Change RBF (mean renal blood flow) (normal anesthetized dog; [2]): -11.6%
% Change RVR (renal vascular resistance) (normal anesthetized dog; [2]): +8.9%
% Change HR (heart rate) (normal anesthetized dog; 30 μg/kg/min (base)): -8.3%
% Change MAP (mean arterial blood pressure) (normal anesthetized dog; 30 μg/kg/min (base)): -7.8%
% Change RBF (mean renal blood flow) (normal anesthetized dog; 30 μg/kg/min (base)): +2.8%
% Change RVR (renal vascular resistance) (normal anesthetized dog; 30 μg/kg/min (base)): -9.5%
% Change HR (heart rate) (normal anesthetized dog; 300 μg/kg/min (base)): -7.8%
% Change MAP (mean arterial blood pressure) (normal anesthetized dog; 300 μg/kg/min (base)): +0.1%
% Change RBF (mean renal blood flow) (normal anesthetized dog; 300 μg/kg/min (base)): +0.7%
% Change RVR (renal vascular resistance) (normal anesthetized dog; 300 μg/kg/min (base)): +1.6%

Br.NCCc1ccc(O)c2c1CC(=O)N2 [C, 4-(2-aminoethyl)-7-hydroxy-2(3H)-indolone hydrobromide]
% Change HR (heart rate) (normal anesthetized dog; [2]): -2.9%
% Change MAP (mean arterial blood pressure) (normal anesthetized dog; [2]): -10.6%
% Change RBF (mean renal blood flow) (normal anesthetized dog; [2]): -12.7%
% Change RVR (renal vascular resistance) (normal anesthetized dog; [2]): +4.1%
% Change HR (heart rate) (normal anesthetized dog; 30 μg/kg/min (base)): -2.9%
% Change MAP (mean arterial blood pressure) (normal anesthetized dog; 30 μg/kg/min (base)): -16.1%
% Change RBF (mean renal blood flow) (normal anesthetized dog; 30 μg/kg/min (base)): -12.3%
% Change RVR (renal vascular resistance) (normal anesthetized dog; 30 μg/kg/min (base)): -2.7%
% Change HR (heart rate) (normal anesthetized dog; 300 μg/kg/min (base)): -15.8%
% Change MAP (mean arterial blood pressure) (normal anesthetized dog; 300 μg/kg/min (base)): +62.6%
% Change RBF (mean renal blood flow) (normal anesthetized dog; 300 μg/kg/min (base)): -32.7%
% Change RVR (renal vascular resistance) (normal anesthetized dog; 300 μg/kg/min (base)): +167.0%

COc1ccc(CCN)c2c1NC(=O)C2.Cl [D, 4-(2-aminoethyl)-7-methoxy-2(3H)-indolone hydrochloride]
% Change HR (heart rate) (normal anesthetized dog; [2]): -1.5%
% Change MAP (mean arterial blood pressure) (normal anesthetized dog; [2]): -0.7%
% Change RBF (mean renal blood flow) (normal anesthetized dog; [2]): +6.7%
% Change RVR (renal vascular resistance) (normal anesthetized dog; [2]): -7.0%
% Change HR (heart rate) (normal anesthetized dog; 30 μg/kg/min (base)): -2.8%
% Change MAP (mean arterial blood pressure) (normal anesthetized dog; 30 μg/kg/min (base)): -2.3%
% Change RBF (mean renal blood flow) (normal anesthetized dog; 30 μg/kg/min (base)): +7.5%
% Change RVR (renal vascular resistance) (normal anesthetized dog; 30 μg/kg/min (base)): -9.2%
% Change HR (heart rate) (normal anesthetized dog; 300 μg/kg/min (base)): -1.6%
% Change MAP (mean arterial blood pressure) (normal anesthetized dog; 300 μg/kg/min (base)): -9.8%
% Change RBF (mean renal blood flow) (normal anesthetized dog; 300 μg/kg/min (base)): +2.1%
% Change RVR (renal vascular resistance) (normal anesthetized dog; 300 μg/kg/min (base)): -9.4%
